According to paper PMC2742306 (Molecular cell, 2009):
Residues, ends and D or L forms follow the SMILES beside them.

What was measured:
Assay type in all cases: biochemical, E. coli
M319A DegS [1] = target: T1, M319A DegS (Escherichia coli, UniProt P0AEE3, M319A); test: Global fit to MWC allosteric model, M319A DegS
K243D mutant of DegS [2] = target: T2, K243D mutant of DegS (Escherichia coli, UniProt P0AEE3, K243D); test: Global fit to MWC allosteric model, K243D DegS
[3] = target: T3, K243D/M319A double mutant of DegS (Escherichia coli, UniProt P0AEE3, K243D/M319A); test: Global fit to MWC allosteric model, K243D/M319A DegS
wild-type DegS [4] = target: T4, wild-type DegS (Escherichia coli, UniProt P0AEE3)
[5] = target: T3, K243D/M319A double mutant of DegS; test: OMP-peptide activation of RseA cleavage by K243D/M319A DegS
D320A DegS [6] = target: T5, D320A DegS (Escherichia coli, UniProt P0AEE3, D320A)
wild-type DegS [7] = target: T4, wild-type DegS; test: OMP-peptide activation of RseA cleavage by wild-type DegS
K243D mutant of DegS [8] = target: T2, K243D mutant of DegS; test: OMP-peptide activation of RseA cleavage by K243D DegS
[9] = target: T3, K243D/M319A double mutant of DegS; settings: saturating peptide
K243D mutant of DegS [10] = target: T2, K243D mutant of DegS
wild-type DegS [11] = target: T4, wild-type DegS; settings: wild-type DegS 0.9 μM trimer; 20 μM rhodamine-FP; saturating peptide
D320A DegS [12] = target: T5, D320A DegS; test: Global fit to MWC allosteric model, D320A DegS
wild-type DegS [13] = target: T4, wild-type DegS; settings: wild-type DegS 0.5 μM trimer, YYF 300 μM
D320A DegS [14] = target: T5, D320A DegS; test: OMP-peptide activation of RseA cleavage by D320A DegS
M319A DegS [15] = target: T1, M319A DegS; test: OMP-peptide activation of RseA cleavage by M319A DegS
[16] = M319A, MWC global fit, RseA, not peptide, binding
[17] = K243D, MWC global fit, RseA, not peptide, binding
[18] = D320A, MWC global fit, RseA, not peptide, binding

T2 sequence (P0AEE3 27-355 K243D): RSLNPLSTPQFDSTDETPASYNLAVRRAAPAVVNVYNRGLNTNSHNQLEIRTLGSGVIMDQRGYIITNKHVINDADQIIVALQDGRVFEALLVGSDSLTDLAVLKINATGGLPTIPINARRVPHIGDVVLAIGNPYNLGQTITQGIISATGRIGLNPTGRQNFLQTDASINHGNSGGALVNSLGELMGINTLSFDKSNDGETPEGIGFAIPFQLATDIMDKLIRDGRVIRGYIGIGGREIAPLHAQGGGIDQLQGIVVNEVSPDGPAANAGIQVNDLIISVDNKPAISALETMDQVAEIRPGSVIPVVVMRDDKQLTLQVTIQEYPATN
T1 sequence (P0AEE3 27-355 M319A): as the sequence (P0AEE3 27-355 K243D) above, with D217K, M293A counted along it
T3 sequence (P0AEE3 27-355 K243D/M319A): as the sequence (P0AEE3 27-355 K243D) above, with M293A counted along it
T5 sequence (P0AEE3 27-355 D320A): as the sequence (P0AEE3 27-355 K243D) above, with D217K, D294A counted along it
T4 sequence (P0AEE3 27-355): as the sequence (P0AEE3 27-355 K243D) above, with D217K counted along it

N[C@@H](Cc1ccc(O)cc1)C(=O)N[C@@H](Cc1ccc(O)cc1)C(=O)N[C@@H](Cc1ccccc1)C(=O)O [YYF] (H-Tyr-Tyr-Phe-OH)
KRS, dissociation constant of RseA substrate for R-state subunit (M319A DegS [1]; [16]): 150 µM | KTS, dissociation constant of RseA substrate for T-state subunit (M319A DegS [1]; [16]): 505 µM | L0, equilibrium constant T/R of unliganded enzyme (M319A DegS [1]; M319A, MWC global fit, enzyme parameter, peptide-independent): 5500 | KTP/KRP (M319A DegS [1]; M319A, MWC global fit, peptide preference for relaxed state): 2.7 | kr, rate constant for cleavage of RseA by substrate-bound R-state subunits (M319A DegS [1]; M319A, MWC global fit, same value for all enzymes and peptides): 3.3 s⁻¹ | reduction of (KTP/KRP)^3 relative to wild-type (M319A DegS [1]; M319A, MWC model): ~100 fold | enzymes in active conformation (M319A DegS [1]; M319A, saturating peptide and substrate, MWC model): about 10% | tighter binding to tense M319A than to tense wild-type DegS (M319A DegS [1]; MWC modeling): about 20 fold | reduction of (KTP/KRP)^3 relative to wild-type (K243D mutant of DegS [2]; K243D (range given for K243D and D320A together), MWC model): 30–70 fold | KRS, dissociation constant of RseA substrate for R-state subunit (K243D mutant of DegS [2]; [17]): 150 µM | KTS, dissociation constant of RseA substrate for T-state subunit (K243D mutant of DegS [2]; [17]): 505 µM | L0, equilibrium constant T/R of unliganded enzyme (K243D mutant of DegS [2]; K243D, MWC global fit, enzyme parameter, peptide-independent): 180 | KTP/KRP (K243D mutant of DegS [2]; K243D, MWC global fit, peptide preference for relaxed state): 3.0 | kr, rate constant for cleavage of RseA by substrate-bound R-state subunits (K243D mutant of DegS [2]; K243D, MWC global fit, same value for all enzymes and peptides): 3.3 s⁻¹ | enzymes in active conformation (K243D mutant of DegS [2]; K243D, saturating peptide and RseA, MWC model): about 85% | KRS, dissociation constant of RseA substrate for R-state subunit ([3]; RseA, not peptide, binding): 150 µM | KTS, dissociation constant of RseA substrate for T-state subunit ([3]; RseA, not peptide, binding): 505 µM | L0, equilibrium constant T/R of unliganded enzyme ([3]; enzyme parameter, peptide-independent): 90 | KTP/KRP ([3]; peptide preference for relaxed state): 2.1 | kr, rate constant for cleavage of RseA by substrate-bound R-state subunits ([3]; same value for all enzymes and peptides): 3.3 s⁻¹ | L0, equilibrium constant T/R of unliganded enzyme (wild-type DegS [4]; MWC global fit, enzyme parameter, peptide-independent): 15000 | KTP/KRP (wild-type DegS [4]; MWC global fit, peptide preference for relaxed state): 12.3 | kr, rate constant for cleavage of RseA by substrate-bound R-state subunits (wild-type DegS [4]; MWC global fit, same value for all enzymes and peptides): 3.3 s⁻¹ | DegS molecules in active conformation (wild-type DegS [4]; saturating peptide and saturating RseA substrate, MWC model): 83% | EC50 [5]: 700 ± 200 nM | Hill Constant (peptide activation) ([5]; K243D/M319A, 200 μM RseA): 1.2 ± 0.1 | Maximum Activity (RseA cleavage) ([5]; K243D/M319A, 200 μM RseA, 23 °C, pH 8.3, average of two or more determinations): 2700 ± 400 M⁻¹ s⁻¹ | Vmax (RseA cleavage) (D320A DegS [6]; D320A 0.3 μM trimer, saturating peptide (DNRDGNVYYF 30 μM), 23 °C, pH 8.3): 3.1 ± 0.3 s^−1enz^−1 | Vmax relative to wild-type DegS (D320A DegS [6]; D320A, saturating YYF): roughly within error for wild-type and the mutants | Hill Constant (RseA substrate) (D320A DegS [6]; D320A, saturating peptide): 1.2 ± 0.1 | EC50 (wild-type DegS [7]): 29 ± 3 µM | displacement in concentration between YYF and YQF activation curves (wild-type DegS [7]; wild-type DegS): ~10 fold | Hill Constant (peptide activation) (wild-type DegS [7]; wild-type DegS, 200 μM RseA): 1.7 ± 0.1 | EC50 (K243D mutant of DegS [8]): 6.4 ± 1.6 µM | Hill Constant (peptide activation) (K243D mutant of DegS [8]; K243D, 200 μM RseA): 1.4 ± 0.2 | activation relative to wild-type DegS (K243D mutant of DegS [8]; K243D, single substrate concentration): only marginally better than wild-type DegS | Hill Constant (RseA substrate) [9]: 1.2 ± 0.1 | Vmax (RseA cleavage) ([9]; 23 °C, pH 8.3): 2.1 ± 0.2 s^−1enz^−1 | Vmax (RseA cleavage) (K243D mutant of DegS [10]; K243D 0.3 μM trimer, saturating peptide (DNRDGNVYYF 30 μM), 23 °C, pH 8.3): 2.3 ± 0.1 s^−1enz^−1 | Vmax relative to wild-type DegS (K243D mutant of DegS [10]; K243D, saturating YYF): roughly within error for wild-type and the mutants | Hill Constant (RseA substrate) (K243D mutant of DegS [10]; K243D, saturating peptide): 1.3 ± 0.1 | rate of rhodamine-FP modification in presence of peptide (order) (wild-type DegS [11]): fastest | reduction of (KTP/KRP)^3 relative to wild-type (D320A DegS [12]; D320A (range given for K243D and D320A together), MWC model): 30–70 fold | KRS, dissociation constant of RseA substrate for R-state subunit (D320A DegS [12]; [18]): 150 µM | KTS, dissociation constant of RseA substrate for T-state subunit (D320A DegS [12]; [18]): 505 µM | L0, equilibrium constant T/R of unliganded enzyme (D320A DegS [12]; D320A, MWC global fit, enzyme parameter, peptide-independent): 350 | KTP/KRP (D320A DegS [12]; D320A, MWC global fit, peptide preference for relaxed state): 4.1 | kr, rate constant for cleavage of RseA by substrate-bound R-state subunits (D320A DegS [12]; D320A, MWC global fit, same value for all enzymes and peptides): 3.3 s⁻¹ | enzymes in active conformation (D320A DegS [12]; D320A, saturating peptide and RseA, MWC model): about 85% | Hill Constant (RseA substrate) (wild-type DegS [13]): 1.4 ± 0.2 | Vmax (RseA cleavage) (wild-type DegS [13]; 23 °C, pH 8.3): 2.6 ± 0.2 s^−1enz^−1 | EC50 (D320A DegS [14]): 4.8 ± 1.2 µM | Hill Constant (peptide activation) (D320A DegS [14]; D320A, 200 μM RseA): 1.4 ± 0.1 | activation relative to wild-type DegS (D320A DegS [14]; D320A, single substrate concentration): only marginally better than wild-type DegS | EC50 (M319A DegS [15]): 3.2 ± 0.4 µM | Hill Constant (peptide activation) (M319A DegS [15]; M319A, 200 μM RseA): 1.1 ± 0.1 | Maximum Activity (RseA cleavage) (M319A DegS [15]; M319A, 200 μM RseA, 23 °C, pH 8.3, average of two or more determinations): 120 ± 20 M⁻¹ s⁻¹ | decrease of half-maximal activation concentration relative to wild-type DegS (M319A DegS [15]; M319A, lower than wild-type): 10 fold | decrease of peptide-activated activity relative to wild-type DegS (M319A DegS [15]; M319A, saturating YYF, lower than wild-type value): 20 fold
